# Laboratory results reported in paper PMC4490784, “Compensatory induction of MYC expression by sustained CDK9 inhibition via a BRD4-dependent mechanism” (eLife, 2015).
# Assays:
# [1] = molecular target: T1, affinity-purified CDK12-F-CycK (Homo sapiens, UniProt Q9NYV4); experiment: In vitro kinase reaction, GST-CTD substrate, pSer2 Western blotting; type: biochemical; conditions: even at 80 nM
# T1 construct: made in house
# Description: (§1) Figure 1. i-CDK9 is a potent and selective CDK9 inhibitor that elicits cellular responses indicative of P-TEFb inhibition. (A and B) Structures and selectivity profiles of i-CDK9 (A) and falvopiridol (B). […] (C) In vitro kinase reactions containing affinity-purified CDK9-F-CycT or CDK12-F-CycK and GST-CTD as a substrate were conducted in the presence of the indicated concentrations of i-CDK9. pSer2 and the Flag-tagged kinase in each reaction were detected by Western blotting with anti-pSer2 and anti-Flag antibodies, respectively. (D) HeLa cells were treated for 8 hr with DMSO or the indicated concentrations of i-CDK9. Total cell lysates were examined by immunoblotting for the proteins labeled on the left. DOI: http://dx.doi.org/10.7554/eLife.06535.003 Figure 1—source data 1. Selectivity profile of i-CDK9. DOI: http://dx.doi.org/10.7554/eLife.06535.004 Figure 1—figure supplement 1. Recombinant CDK12-CycK is less sensitive to inhibition by i-CDK9.
# (§2) Among all members of the CDK super family, CDK12 deserves special attention because of its reported phosphorylation of the Pol II CTD on Ser2, an ability that is shared with CDK9 ([Bartkowiak et al., 2010]). […] Phosphorylation of Ser2 (pSer2) was detected by Western blotting with a specific antibody.
# [2] = molecular target: T2, affinity-purified CDK9-F-CycT (Homo sapiens, UniProt P50750); experiment: as above; type: biochemical; conditions: read-out: estimated IC50 of Ser2 phosphorylation
# T2 construct: made in house; host or cells: probably the HeLa-based F1C2 cells
# Description: as §1, §2
# [3] = molecular target: JAK1(JH2domain-pseudokinase) (Homo sapiens, UniProt P23458); experiment: KINOMEscan binding assay; set-up: JAK1(JH2domain-pseudokinase); purchased DiscoveRx KINOMEscan
# Description: As there are no commercial or in-house kinase assays available for CDK3, CDK5, CDK11 and CDK13, the inhibitory abilities of i-CDK9 toward these CDKs were thus evaluated in the DiscoveRx KINOMEscan assay, which is based on a proprietary active site-directed competition-binding platform ([Fabian et al., 2005]).
# The inhibitory activity of i-CDK9 for CDK1-CycB (Upstate/Millipore), CDK2-CycA (Invitrogen), CDK4-CycD1 (Novartis), CDK7-CycH-MAT1 (Invitrogen), and CDK9-CycT1 (Invitrogen) was assessed in the AlphaScreen (PerkinElmer, Inc)-based kinase assay developed at Novartis. Briefly, each CDK–cyclin pair was pre-incubated with i-CDK9 for 15 min, followed by addition of kinase substrates (ELK for CDK1 and CDK2, RB for CDK4, and CDK7tide for CDK7 and CDK9). The mixture was incubated at room temperature for additional 4–5 hr. The reaction was stopped and read on Envision (PerkinElmer, Inc). Selectivity against a large panel of over 400 kinases was evaluated using the KINOMEscan platform (DiscoveRx, CA) employing a proprietary active site-directed competition binding assay ([Fabian et al., 2005]). The assay was conducted at two different concentrations of i-CDK9 (1 and 10 µM) by DiscoveRx.
# Sequence of JAK1(JH2domain-pseudokinase) (P23458 561-860 limits assumed): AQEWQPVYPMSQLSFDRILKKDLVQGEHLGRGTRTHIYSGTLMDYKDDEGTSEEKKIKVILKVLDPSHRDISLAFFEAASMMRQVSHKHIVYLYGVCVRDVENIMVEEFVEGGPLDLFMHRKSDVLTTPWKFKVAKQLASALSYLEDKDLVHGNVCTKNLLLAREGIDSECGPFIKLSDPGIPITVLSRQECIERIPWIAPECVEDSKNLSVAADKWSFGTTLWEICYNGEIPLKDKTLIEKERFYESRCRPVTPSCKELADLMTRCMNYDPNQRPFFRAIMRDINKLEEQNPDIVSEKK
# T1 sequence (Q9NYV4 whole entry): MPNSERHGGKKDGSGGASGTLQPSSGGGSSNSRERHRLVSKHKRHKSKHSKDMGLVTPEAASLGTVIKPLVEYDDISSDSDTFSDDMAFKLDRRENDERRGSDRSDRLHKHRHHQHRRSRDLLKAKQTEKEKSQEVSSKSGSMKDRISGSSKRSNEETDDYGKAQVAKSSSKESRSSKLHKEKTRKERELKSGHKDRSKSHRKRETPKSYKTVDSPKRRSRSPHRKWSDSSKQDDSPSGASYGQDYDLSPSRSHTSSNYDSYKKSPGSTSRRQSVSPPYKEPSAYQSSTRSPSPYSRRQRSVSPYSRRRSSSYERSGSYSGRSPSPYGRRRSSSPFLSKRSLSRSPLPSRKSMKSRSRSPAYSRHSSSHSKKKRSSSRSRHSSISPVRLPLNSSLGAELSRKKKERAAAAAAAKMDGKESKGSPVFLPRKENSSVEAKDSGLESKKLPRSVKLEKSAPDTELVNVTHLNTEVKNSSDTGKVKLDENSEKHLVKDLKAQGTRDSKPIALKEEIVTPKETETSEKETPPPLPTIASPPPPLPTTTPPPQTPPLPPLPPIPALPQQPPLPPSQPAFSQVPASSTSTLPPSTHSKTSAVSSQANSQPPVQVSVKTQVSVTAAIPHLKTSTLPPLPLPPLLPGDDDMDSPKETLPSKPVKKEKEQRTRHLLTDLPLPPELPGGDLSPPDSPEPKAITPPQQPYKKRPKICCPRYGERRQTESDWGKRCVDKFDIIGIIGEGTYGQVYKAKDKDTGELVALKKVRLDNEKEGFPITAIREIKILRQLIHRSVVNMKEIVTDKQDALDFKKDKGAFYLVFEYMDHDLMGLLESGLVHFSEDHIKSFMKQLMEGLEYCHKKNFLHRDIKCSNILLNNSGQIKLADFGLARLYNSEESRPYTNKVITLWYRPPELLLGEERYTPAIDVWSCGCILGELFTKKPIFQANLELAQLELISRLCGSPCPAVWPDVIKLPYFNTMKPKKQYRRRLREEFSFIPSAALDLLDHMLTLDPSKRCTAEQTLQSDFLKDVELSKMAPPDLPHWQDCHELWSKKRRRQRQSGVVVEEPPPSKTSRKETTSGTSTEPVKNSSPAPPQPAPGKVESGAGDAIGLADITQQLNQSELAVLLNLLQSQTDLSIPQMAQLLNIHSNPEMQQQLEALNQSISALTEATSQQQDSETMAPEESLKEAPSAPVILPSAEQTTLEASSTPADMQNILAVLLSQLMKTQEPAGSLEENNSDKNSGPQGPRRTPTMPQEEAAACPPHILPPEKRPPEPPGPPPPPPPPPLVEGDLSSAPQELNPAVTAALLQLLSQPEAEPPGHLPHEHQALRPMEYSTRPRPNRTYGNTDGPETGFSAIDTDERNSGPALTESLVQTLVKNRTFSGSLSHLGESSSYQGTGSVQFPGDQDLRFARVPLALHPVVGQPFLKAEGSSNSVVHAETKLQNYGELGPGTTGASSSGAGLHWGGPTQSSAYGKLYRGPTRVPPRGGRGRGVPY
# T1 sequence (O75909 whole entry partner): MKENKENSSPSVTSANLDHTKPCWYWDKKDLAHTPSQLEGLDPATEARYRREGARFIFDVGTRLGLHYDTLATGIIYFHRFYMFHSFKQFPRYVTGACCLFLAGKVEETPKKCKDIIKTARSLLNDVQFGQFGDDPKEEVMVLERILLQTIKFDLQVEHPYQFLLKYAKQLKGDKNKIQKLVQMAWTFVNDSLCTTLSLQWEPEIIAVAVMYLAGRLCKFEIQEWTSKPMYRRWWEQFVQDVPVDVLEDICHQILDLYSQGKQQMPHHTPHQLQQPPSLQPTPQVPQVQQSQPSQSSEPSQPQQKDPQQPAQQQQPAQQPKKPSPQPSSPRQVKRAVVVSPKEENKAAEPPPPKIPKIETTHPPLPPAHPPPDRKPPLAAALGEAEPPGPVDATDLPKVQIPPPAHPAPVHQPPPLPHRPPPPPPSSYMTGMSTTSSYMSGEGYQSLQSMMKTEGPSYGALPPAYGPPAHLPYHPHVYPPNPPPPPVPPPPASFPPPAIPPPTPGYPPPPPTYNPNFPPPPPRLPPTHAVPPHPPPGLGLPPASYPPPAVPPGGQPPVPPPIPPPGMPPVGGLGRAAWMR
# T2 sequence (P50750 whole entry): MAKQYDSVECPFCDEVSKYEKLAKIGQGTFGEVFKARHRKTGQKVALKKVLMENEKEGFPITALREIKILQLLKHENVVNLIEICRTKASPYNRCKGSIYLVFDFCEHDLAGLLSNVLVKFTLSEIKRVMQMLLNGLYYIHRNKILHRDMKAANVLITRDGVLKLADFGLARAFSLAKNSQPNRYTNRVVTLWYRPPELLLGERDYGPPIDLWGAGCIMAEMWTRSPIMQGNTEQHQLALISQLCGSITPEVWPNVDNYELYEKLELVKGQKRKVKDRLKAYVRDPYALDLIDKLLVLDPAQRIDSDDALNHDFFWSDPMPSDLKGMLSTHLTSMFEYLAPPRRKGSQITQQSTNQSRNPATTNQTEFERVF
# T2 sequence (O60563 whole entry partner): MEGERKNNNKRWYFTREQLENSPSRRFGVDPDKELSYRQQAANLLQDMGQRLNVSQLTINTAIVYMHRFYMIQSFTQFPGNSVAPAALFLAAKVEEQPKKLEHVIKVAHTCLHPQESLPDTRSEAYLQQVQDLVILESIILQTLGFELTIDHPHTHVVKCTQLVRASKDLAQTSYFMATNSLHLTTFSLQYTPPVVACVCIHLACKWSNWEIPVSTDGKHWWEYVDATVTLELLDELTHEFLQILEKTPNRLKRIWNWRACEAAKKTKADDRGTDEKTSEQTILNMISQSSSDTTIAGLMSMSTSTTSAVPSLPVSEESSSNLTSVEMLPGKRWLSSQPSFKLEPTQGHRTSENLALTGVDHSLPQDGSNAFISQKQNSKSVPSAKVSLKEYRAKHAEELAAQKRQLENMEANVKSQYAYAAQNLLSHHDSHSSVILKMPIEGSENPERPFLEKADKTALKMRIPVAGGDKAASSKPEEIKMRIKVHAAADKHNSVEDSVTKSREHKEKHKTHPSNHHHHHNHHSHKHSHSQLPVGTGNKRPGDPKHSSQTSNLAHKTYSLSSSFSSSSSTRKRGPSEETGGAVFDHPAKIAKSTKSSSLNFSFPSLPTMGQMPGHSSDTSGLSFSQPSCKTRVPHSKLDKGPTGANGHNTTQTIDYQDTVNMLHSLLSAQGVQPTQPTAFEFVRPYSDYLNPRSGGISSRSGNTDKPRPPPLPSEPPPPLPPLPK
compound,measurement,setting,value
"N[C@H]1CC[C@H](Nc2cc(-c3cccc(NCc4cccc(F)c4)n3)c(Cl)cn2)CC1 [i-CDK9, N2′-(trans-4-aminocyclohexyl)-5′-chloro-N6-(3-fluorobenzyl)-2,4′-bipyridine-2′,6-diamine]",inhibition of Ser2 phosphorylation,[1],no obvious inhibition
same,IC50,[2],~2 nM
same,% Retention on Solid Support,[3]; 1 µM i-CDK9,85%
same,% Retention on Solid Support,[3]; 10 µM i-CDK9,81%
